Common to all, as to format: in vivo
The subject of one assay is Venturia inaequalis. Kind of assay: Venturia Test (Apples)/Preventive. The note with it: preventive spray, evaluated 10 days after inoculation.
The test system of the next assay is Phytophthora infestans. Conditions: tomatoes, preventive spray, evaluated 3 days after inoculation.
A further assay has as its system Alternaria solani. Kind of assay: Alternaria Test (Tomatoes)/Preventive. Conditions: preventive spray, 100 ppm a.i., evaluated 3 days after inoculation.

Where two headings read alike, the source gives them in different places.

For mancozeb [F174 mancozeb], the “Efficacy in % found” value worked out at 24% with Venturia inaequalis (20 ppm a.i.) and 15% with Phytophthora infestans (Table A2, 10 ppm a.i.).
Turning to propineb [F180 propineb], the “Efficacy in % found” value with Phytophthora infestans (Table A2, 10 ppm a.i.) came out at 23%.
Turning to `N#Cc1c(Cl)c(Cl)c(Cl)c(C#N)c1Cl` [F155 chlorothalonil, chlorothalonil], the “Efficacy in % found” value in the assay with Venturia inaequalis (10 ppm a.i.) was 43%.
Turning to `O=C(NCc1ncc(C(F)(F)F)cc1Cl)c1c(Cl)cccc1Cl` [F143 fluopicolide, fluopicolide], the “Efficacy in % found” value in the assay with Phytophthora infestans (Table A1, 5 ppm a.i.) came out at 32%; in the assay with Alternaria solani, 0%.
